# US8399494B2, “2,5-disubstituted phenyl carboxamide orexin receptor antagonists” (Merck Sharp & Dohme Corp., priority 2008, dated 2013)
# Biological target: T1, OX2R (Homo sapiens, UniProt O43614)
# T1 construct: expressed in transfected cells; host or cells: CHO cells (membranes)
# T1 sequence (O43614 1-444): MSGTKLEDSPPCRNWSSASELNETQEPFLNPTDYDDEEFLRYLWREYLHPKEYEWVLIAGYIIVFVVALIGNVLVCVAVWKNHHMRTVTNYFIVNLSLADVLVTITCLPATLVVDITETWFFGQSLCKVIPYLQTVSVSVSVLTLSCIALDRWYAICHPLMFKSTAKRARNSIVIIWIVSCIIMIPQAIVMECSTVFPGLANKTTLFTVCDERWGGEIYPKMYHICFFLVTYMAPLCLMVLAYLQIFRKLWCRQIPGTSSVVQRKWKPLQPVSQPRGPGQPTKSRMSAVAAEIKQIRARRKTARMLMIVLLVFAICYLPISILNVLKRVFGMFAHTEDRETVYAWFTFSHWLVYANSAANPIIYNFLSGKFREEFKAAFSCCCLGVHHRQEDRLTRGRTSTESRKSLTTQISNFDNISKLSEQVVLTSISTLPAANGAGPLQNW
# Assay: radioligand binding assay, OX2 receptor
# Conditions: membranes prepared from CHO cells expressing OX2 receptor
row,Compound,Ki [nM]
1,"COc1ccc(CNC(=O)c2cc(-c3cc(Cl)cc(Cl)c3)ccc2-c2cccnc2)cc1OC [1-6, 3′,5′-dichloro-N-(3,4-dimethoxybenzyl)-4-pyridin-3-ylbiphenyl-3-carboxamide]",0.12
2,"CCc1nc(CNC(=O)c2cc(-c3cncc(C)c3)ccc2-c2cnn(C)c2)ccc1OC [1-17, N-[(6-ethyl-5-methoxypyridin-2-yl)methyl]-2-(1-methyl-1H-pyrazol-4-yl)-5-(5-methylpyridin-3-yl)benzamide]",1.3
